Data published in patent US5077195A, “Polypeptides complementary to peptides or proteins having an amino acid sequence or nucleotide coding sequence at least partially known and methods of design therefor” (Board of Reagents, The University of Texas System, priority 1986, dated 1991).
“And” between values parts separate entries of the source, which are not always exact repeats. Equal values may be shown once. Where no end group is shown, it is not given here.

Key:
[1] = target: LHRH (Homo sapiens, UniProt P01148); assay: Reverse hemolytic plaque assay, LHRH-stimulated LH release from pituitary cells; type: cell-based
Description: A reverse hemolytic plaque assay (Smith, et al.), Method in Enzymology, 124, p.
Plaques were analyzed by determining plaque area with an image analysis (Bioquant or Image Technology Corp. Model 300) of 125×-500× microscopic enlargements.

[2] = target: T1, I^125 ACTH (1-39) (Homo sapiens, UniProt P01189); assay: ^125 I-ACTH binding to peptide-coated microtiter wells; settings: for CPM bound ^125 I-ACTH: Table 10; for CPM Bound ^125 I-ATCH: Table 11
T1 construct: I^125 ACTH (1-39) (New England Nuclear Boston, MA); purchased New England Nuclear (Boston, MA)
T1 sequence (P01189 138-176 limits assumed): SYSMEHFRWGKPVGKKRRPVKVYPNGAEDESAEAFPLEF
Description: Utilizing techniques described in Example 1B, polyvinyl microtiter wells were coated with 3'-5' HTCA from a 1 mM solution thereof or with BSA.
The BSA and 3'-5' HTCA coated wells were washed and then treated with one of three solutions of I^125 ACTH (1-39) (New England Nuclear Boston, MA) having different concentrations. After a forty five minute incubation period the solution was removed and the microtiter wells extensively washed. The microtiter wells were separated and assayed for iodine^125content in a Beckman Gamma 5500 gamma counter. Bound ^125 I-ACTH was measured in duplicate at three concentrations in the absence and presence of excess unlabelled ACTH.
Utilizing the cRNA sequence and HTCA sequence shown in Table 8 of Example 1A, a series of peptides having a carboxy-terminal portion of the HTCA amino acid were synthesized. A pentamer (5-mer) contained the amino acid sequence: H2 N-Phe-His-Gly-Val-Arg-COOH. A decamer (10-mer) contained the amino acid sequence: H2 N-[…]COOH. A twenty membered peptide (20-mer) contained the amino acids sequence: H2 N-[…] Val-Arg-COOH. Each of thes peptides was used to coat microtiter wells and the coated wells tested for the ability to bind ^125 I-ACTH as described in Example 1C.
A 24-mer HTCA variant (R-HTCA) with reversed amino acid sequence directionality (amino-terminal and carboxy-terminal ends being reversed) was synthesized and had the following sequence: H2 N-[…] Arg-His-Leu-His-Val-Gly-COOH. The well-coating and ^125 I-ACTH binding procedures were performed as described in Example 1-C and the resultant data shown in Table 11.

[3] = target: T2, ACTH (1-24) (Homo sapiens, UniProt P01189); assay: ELISA binding of ACTH to HTCA-coated microtiter wells
T2 construct: 10 ug synthetic ACTH (1-24) in PBS-Tween buffer; purchased Organon (West Orange, N.J.); host or cells: chemical synthesis
Description: From 1 to 25 micrograms (ug) per well of HTCA or insulin in carbonate-bicarbonate coating buffer were added to 96 well round bottom microtiter plates and incubated at 4° C. for 8 hr. The plates were then washed with phosphate buffered saline (PBS)-Tween 20 (Sigma Chemical Co., St. Louis, Mo.) buffer.
To the insulin-coated wells and to some of the HTCA-coated wells was added 10 ug synthetic ACTH (1-24) in PBS-Tween buffer. Control wells (HTCA alone) contained only PBS-Tween. The plates were incubated at room temperature for 2 hr. and then washed three times with PBS-Tween buffer. Rabbit antisera directed against the amide of synthetic ACTH 1-13 (Accurate Biochemicals, Westbury N.Y.) was added to each well and the plates were incubated for 1 hr at room temperature. Following 3 washes with PBS-Tween buffer, alkaline phosphatase-conjugated goat anti-rabbit Ig G (Miles Laboratories, Elkharbt, Ind.) in PBS-Tween buffer (1:300 dilution) was added. After inculation at room temperature for 1 hr, the plates were washed three times with PBS-Tween buffer and each well was treated with 200 microliters (ul) of p-nitrophenyl phosphate (1 mg/ml in carbonate-bicarbonate buffer) for 11/2 hr. at room temperature. The enzymatic reaction was then stopped by the addition of 3N NaOH (50 ul) to each well and the optical absorbance of p-nitrophenol the alkaline phosphatase product, was measured at 405 nm. The ACTH bound to the coated microtiter wells was measured by this enzyme-linked immunoabsorbent assay (ELISA).
A microtiter plate was prepared and treated generally as described above but was coated with 3.7 nmol/well HTCA. To each coated well was added a solution of 3.7 nmol ACTH combined with the amounts of HTCA designated on the abscissa in FIG. 4.

[4] = target: T3, ^125 I-ACTH (Homo sapiens, UniProt P01189); assay: Solid-phase binding of ^125 I-ACTH to 5'-3' and 3'-5' complementary peptides; settings: wells coated 2 mg/ml
T3 construct: ACTH plates+immunized rabbit immunoglobulin
T3 sequence (P01189 138-176 limits assumed): T1 sequence (P01189 138-176 limits assumed)
Description: A solid-phase binding assay was used to determine the ability of both the 5'-to-3' and the 3'-to-5'-complementary-RNA-strand peptides (see Examples 1A and 1C) to bind ^125 I-ACTH. The peptides were diluted in phosphate-buffered saline (140 mM-NaCl/3 mM-KCl/0.1% NaN3 /20 mM-phosphate buffer, pH 7.4) to 2 mg/ml, and 0.2 ml/well was placed into poly(vinyl chloride) micro-titre plates (Becton and Dickinson, Oxnard, CA, U.S.A.). After 18 h at 4° C., unbound peptide was removed by washing three times with phosphate-buffered saline containing 0.1% bovine serum albumin (Sigma Chemical Co., St. Louis, MO, U.S.A.). ^125 I-ACTH was diluted to various concentrations with phosphate-buffered saline containing 0.1% bovine serum albumin and incubated in peptide-coated wells for 60 minutes at 4° C. […] After incubation, unbound radiolabel was washed out with phosphate-buffered saline containing 0.1% bovine serum albumin, and the radioactivity of individual wells was measured by gamma-radiation counting. The amount of specifically bound radioactivity was determined by blocking ^125 I-ACTH binding with unlabelled ACTH. Additional controls included coating wells with insulin or bovine serum albumin (2 mg/ml) before the addition of the ^125 I-ACTH.

[5] = conc ^125 I-ATCH, + excess ACTH

C[C@H](N)C(=O)NCC(=O)N[C@H]1CSSC[C@@H](C(=O)O)NC(=O)[C@H](CO)NC(=O)[C@H]([C@@H](C)O)NC(=O)[C@H](Cc2ccccc2)NC(=O)[C@H]([C@@H](C)O)NC(=O)[C@H](CCCCN)NC(=O)[C@H](Cc2c[nH]c3ccccc23)NC(=O)[C@H](Cc2ccccc2)NC(=O)[C@H](Cc2ccccc2)NC(=O)[C@H](CC(N)=O)NC(=O)[C@H](CCCCN)NC1=O [Somatostatin, reference compound]
plaque area, percentage response to control assay ([1]; 5 × 10^-10 M LHRH + Somatostatin 10^-4 M, Exp. 1 (Pre)): 103%

APAEVFHGVR [10-mer]
CPM bound ^125 I-ACTH ([2]; conc ^125 I-ATCH): 8,927 CPM and 9,072 CPM
CPM bound ^125 I-ACTH [2, 5]: 345 CPM and 350 CPM

FHGVR [5-mer, H2 N-Phe-His-Gly-Val-Arg-COOH]
CPM bound ^125 I-ACTH ([2]; 1:3 dilution ^125 I-ATCH): 3,514 CPM and 3,655 CPM
CPM bound ^125 I-ACTH ([2]; 1:3 dilution ^125 I-ATCH, + excess ACTH): 97 CPM and 95 CPM
CPM bound ^125 I-ACTH ([2]; 1:9 dilution ^125 I-ATCH): 995 CPM and 993 CPM
CPM bound ^125 I-ACTH [2, 5]: 233 CPM and 245 CPM

GVHLHRAPLLAHRLAPAEVFHGVR [HTCA]
ACTH-HTCA binding that was specific ([3]; 3.7 nmol/well HTCA coating, competition with soluble HTCA): about 90%
Kd ([3]; wells coated with 3.7 nmol/well HTCA, 3.7 nmol ACTH, read-out: Kd (Scatchard analysis) of ACTH-HTCA binding): 1900 nM

HRAPLLAHRLAPAEVFHGVR [20-mer]
CPM bound ^125 I-ACTH ([2]; 1:3 dilution ^125 I-ATCH): 613 CPM and 625 CPM

RVGHFVEAPALRHALLPARHLHVG [R-HTCA]
binding of ^125 I-ACTH to coated wells (in words) [2]: significant affinity for ACTH
CPM Bound ^125 I-ATCH ([2]; 1:9 dil. ^125 I-ATCH): 1,101 CPM and 1,161 CPM
CPM Bound ^125 I-ATCH ([2]; 1:9 dil. ^125 I-ATCH, + Excess ACTH): 65 CPM and 69 CPM
CPM Bound ^125 I-ATCH ([2]; conc ^125 I-ATCH): 10,392 CPM and 10,709 CPM

SRAQSIGPVL [5CA-LHRH, LEU--VAL--PRO--GLY--ILE--SER--GLN--ALA--ARG--SER]
plaque area, percentage response to control assay ([1]; 5CA-LHRH alone 10^-5 M, Exp. 3): 2.7%
plaque area, percentage response to control assay ([1]; 5CA-LHRH alone 10^-6 M, Exp. 3): 0.5%
plaque area, percentage response to control assay ([1]; 5CA-LHRH alone 10^-7 M, Exp. 3): 0.5%
plaque area, percentage response to control assay ([1]; 5 × 10^-10 M LHRH + 10^-4 M, Exp. 1 (Pre)): 77%
plaque area, percentage response to control assay ([1]; LHRH + 10^-4 M, Exp. 2 (No)): 61%
plaque area, percentage response to control assay ([1]; LHRH + 10^-4 M, Exp. 4 (Pre)): 52%
plaque area, percentage response to control assay ([1]; LHRH + 10^-4 M, Exp. 5 (No)): 52%
plaque area, percentage response to control assay ([1]; LHRH + 10^-5 M, Exp. 1 (Pre)): 82%
plaque area, percentage response to control assay ([1]; LHRH + 10^-5 M, Exp. 2 (No)): 52%
plaque area, percentage response to control assay ([1]; LHRH + 10^-5 M, Exp. 3 (Pre)): 68%
plaque area, percentage response to control assay ([1]; LHRH + 10^-5 M, Exp. 4 (Pre)): 63%
plaque area, percentage response to control assay ([1]; LHRH + 10^-5 M, Exp. 5 (No)): 70%
plaque area, percentage response to control assay ([1]; LHRH + 10^-6 M, Exp. 1 (Pre)): 110%
plaque area, percentage response to control assay ([1]; LHRH + 10^-6 M, Exp. 2 (No)): 74%
plaque area, percentage response to control assay ([1]; LHRH + 10^-6 M, Exp. 3 (Pre)): 98%
plaque area, percentage response to control assay ([1]; LHRH + 10^-6 M, Exp. 4 (Pre)): 81%
plaque area, percentage response to control assay ([1]; LHRH + 10^-6 M, Exp. 5 (No)): 81%
plaque area, percentage response to control assay ([1]; LHRH + 10^-7 M, Exp. 1 (Pre)): 101%
plaque area, percentage response to control assay ([1]; LHRH + 10^-7 M, Exp. 2 (No)): 74%
plaque area, percentage response to control assay ([1]; LHRH + 10^-7 M, Exp. 3 (Pre)): 88%
plaque area, percentage response to control assay ([1]; LHRH + 10^-7 M, Exp. 4 (Pre)): 78%
plaque area, percentage response to control assay ([1]; LHRH + 10^-7 M, Exp. 5 (No)): 115%
plaque area, percentage response to control assay ([1]; LHRH + 10^-8 M, Exp. 1 (Pre)): 105%
plaque area, percentage response to control assay ([1]; LHRH + 10^-8 M, Exp. 2 (No)): 83%
plaque area, percentage response to control assay ([1]; LHRH + 10^-8 M, Exp. 4 (Pre)): 96%
plaque area, percentage response to control assay ([1]; LHRH + 10^-8 M, Exp. 5 (No)): 92%
plaque area, percentage response to control assay ([1]; LHRH + 10^-9 M, Exp. 1 (Pre)): 119%
plaque area, percentage response to control assay ([1]; LHRH + 10^-9 M, Exp. 2 (No)): 84%
plaque area, percentage response to control assay ([1]; LHRH + 10^-9 M, Exp. 4 (Pre)): 95%
plaque area, percentage response to control assay ([1]; LHRH + 10^-9 M, Exp. 5 (No)): 123%

insulin: control coating protein [reference compound]
binding of ACTH (1-24) to coated microtiter wells (in words) ([3]; 10 ug ACTH, ELISA): not by insulin coated microtiter wells
binding on control plates relative to binding to complementary peptide plates [4]: less than 5%
